Measured values: US20210299286A1, “TETRAZINES FOR HIGH CLICK CONJUGATION YIELD IN VIVO AND HIGH CLICK RELEASE YIELD” (Tagworks Pharmaceuticals B.V., priority 2018, published 2021)

What was measured:
CC49-TCO-Dox [1] = test: In vitro Dox release from CC49-TCO-Dox in 50% mouse serum; format: biochemical
Method: (§1) Doxorubicin (Dox) release from the TCO-linked ADC CC49-TCO-Dox with various TZ activators in PBS and 50% mouse serum at 37° C. was evaluated in vitro as described in Rossin et al. Bioconjug. […] The results of these experiments are depicted in Tables 3 (PBS) and 4 (mouse serum). The release reactions were performed in triplicate unless otherwise stated in the result table.

[2] = In vitro tetrazine stability (decrease of UV absorbance at 520 nm); format: physicochemical; details: 10% MeCN/PBS; read-out: In vitro tetrazine stability (h), t1/2 (converted)
Method: The stability of tetrazines was evaluated by dissolving them in 10% MeCN/PBS at 37° C. and following the decrease of the tetrazine UV absorbance at 520 nm in time (Table 4).

AVP0458-TCO-MMAE = test: MMAE release from diabody ADC with D8-MMAE internal standard (LC-SIM-MS); format: biochemical; details: 10 equiv of tetrazine, PBS/plasma (1/1), 37° C., after 24 h, n=3
Method: In an alternative method MMAE release from diabody ADC (AVP0458-TCO-MMAE) was determined by using a deuterated internal standard D8-MMAE. ADC (1.1×10^−10 moles bound MMAE) and D8-MMAE (1.1×10^−10 moles) and 10 equiv of tetrazine were incubated in 100 uL PBS/plasma (1/1) at 37° C.

[3] = tested on: LS174T tumor-bearing mice; test: Tumor blocking experiment, mice pretreated with IgG-based ADC CC49-TCO-Dox; format: in vivo, mouse; details: CC49-TCO-Dox 5 mg/kg, clearing agent, TZ activator, probe [177Lu]Lu-5.1; compared with the other TZ's
Method: (§2) The animal studies were performed in accordance with the principles established by the revised Dutch Act on Animal Experimentation (1997) and were approved by the institutional Animal Welfare Committee of the Maastricht University and Radboud University Nijmegen. The colorectal cancer (LS174T) mouse model was reported in Rossin et al. Bioconjug. Chem., 2016, 27, 1697-1706.
(§3) To assess the in vivo reaction of TZ activators towards TCO-containing ADCs, tumor blocking experiments were performed as described in Rossin et al., Bioconjug. Chem. 2016, 27, 1697-1706.
A series of 3,6-bisalkyl TZ activators (2.1, 2.2, 2.9, 2.11, 2.12) and 3-alkyl-6-pyridyl TZ activators (3.1, 3.2, 3.4) was tested in tumor-bearing mice (n=3-4) pretreated with an IgG-based ADC (CC49-TCO-Dox, DAR ca. 2) at a 5 mg/kg dose. A clearing agent (galactose-albumin-TZ, Rossin et al., J. Nucl. Med. 2013, 54, 1989-1995) was administered to the mice 24 post-ADC injection followed by the TZ activator (dose 10×: ca. 0.033 mmol/kg; close 100×: ca. 0.335 mmol/kg) 2 h later. One-hour after activation the mice were administered the highly reactive radiolabeled probe [^177Lu]Lu-5.1 (ca. 0.335 μmol/kg, ca. 1.5 MBq/mouse) and were euthanized 3 h later. All injections were performed intravenously. Tumors were harvested and the radioactivity was measured by γ-counting along with standards to determine the % injected dose per gram (% ID/g). […]

[4] = Second-order reaction rate constant with TCO derivative by UV spectroscopy; format: physicochemical; details: 25% MeCN/PBS at 20° C.
Method: The second-order reaction rate constants were calculated from the rate at which the absorption at 520 nm (specific for the TZ moiety) decreased (Table 4).

CC49-TCO-Dox [5] = test: In vitro Dox release from CC49-TCO-Dox in PBS; format: biochemical
Method: as §1

[6] = tested on: LS174T tumor-bearing mice; test: Tumor blocking experiment, mice pretreated with diabody-based ADC AVP0458-TCO-MMAE; format: in vivo, mouse; details: AVP0458-TCO-MMAE ca. 2 mg/kg, activator 48 h later, probe [111In]In-5.1; compared with the other TZ's
Method: as §2, §3
A series of 3-pyrimidyl-6-alkyl TZ activators (4.1, 4.11, 4.13, 4.15, 4.26, 4.28) was then compared to compound 4.12 in LS174T tumor-bearing mice (n=3-5) pretreated with a diabody-based ADC (AVP0458-TCO-MMAE; DAR=4). The mice were injected the ADC at a ca. 2 mg/kg dose followed 48 h later by the activator (dose 1×: ca. 3.35 μmol/kg; dose 2.5×: ca. […]; dose 5×: ca. 0.017 mmol/kg; dose 10×: ca. 0.033 mmol/kg; dose 100×: ca. 0.335 mmol/kg) and, 1 h post-activator, by the [^111In]In-5.1 probe. Three hours ([…], 4.15) or 24 h (4.26, 4.28) post-probe injection the mice were euthanized and the tumor blocking capacity of the various activators at the administered dose (FIG. 2B) was calculated as reported above.

[7] = In vitro microsomal stability of TZ activators, cynomolgus microsomes; format: in vitro ADME; details: 5 μM activator, 0.5 mg/mL microsomes, normalized to 100% at t=0, LC-MS
Method: (§4) The in vitro stability of activators 4.11, 4.13, and 4.15 was tested in the presence of human, mouse, rat and cynomolgus microsomes after 30 min incubation (normalized to 100% at t=0). Control samples were incubated with the same concentration of BSA. The activators (5 μM) were incubated in 20 mM phosphate buffer pH 7.4 containing the microsomes (0.5 mg/mL), 1 mM NADP, 5 mM glucose-6-phosphate, 1 U/mL glucose-6-phosphate dehydrogenase, and 2 mM MgCl2 at 37° C. and the measurements were performed by LC-MS. The amount of activator in solution was quantified using calibration curves.

[8] = In vitro microsomal stability of TZ activators, human microsomes; format: in vitro ADME; details: 5 μM activator, 0.5 mg/mL microsomes, normalized to 100% at t=0, LC-MS
Method: as §4

[9] = In vitro microsomal stability of TZ activators, rat microsomes; format: in vitro ADME; details: 5 μM activator, 0.5 mg/mL microsomes, normalized to 100% at t=0, LC-MS
Method: as §4

[10] = In vitro microsomal stability of TZ activators, mouse microsomes; format: in vitro ADME; details: 5 μM activator, 0.5 mg/mL microsomes, normalized to 100% at t=0, LC-MS
Method: as §4

[11] = Control incubation with BSA in the microsomal stability test; format: in vitro ADME; details: control samples, same concentration of BSA
Method: as §4

half-life [2]	In vitro microsomal stability of TZ activators after 30 min incubation at 37° C.: Cynomolgus [7]	In vitro microsomal stability of TZ activators after 30 min incubation at 37° C.: Human [8]	In vitro microsomal stability of TZ activators after 30 min incubation at 37° C.: Rat [9]	In vitro microsomal stability of TZ activators after 30 min incubation at 37° C.: Mouse [10]	In vitro microsomal stability of TZ activators after 30 min incubation at 37° C.: BSA [11]	Compound	In vitro Dox release (%) from CC49-Dox at 37° C. in 50% mouse serum: 1 h (CC49-TCO-Dox [1]; 1 h)	In vitro Dox release (%) from CC49-Dox at 37° C. in 50% mouse serum: 2 h (CC49-TCO-Dox [1]; 2 h)	In vitro Dox release (%) from CC49-Dox at 37° C. in 50% mouse serum: 3 h (CC49-TCO-Dox [1]; 3 h)	induced MMAE release (%) from AVP0458-TCO-MMAE (AVP0458-TCO-MMAE)	tumor blocking capacity (FIG. 2A) [3]	reactivity (k2) [4]	In vitro Dox release (%) from CC49-Dox at 37° C. in PBS: 1 h (CC49-TCO-Dox [5]; 1 h)	In vitro Dox release (%) from CC49-Dox at 37° C. in PBS: 2 h (CC49-TCO-Dox [5]; 2 h)	In vitro Dox release (%) from CC49-Dox at 37° C. in PBS: 3 h (CC49-TCO-Dox [5]; 3 h)	In vitro Dox release (%) from CC49-Dox at 37° C. in PBS: 24 h (CC49-TCO-Dox [5]; 24 h)	In vitro Dox release (%) from CC49-Dox at 37° C. in PBS: 48 h (CC49-TCO-Dox [5]; 48 h)	tumor blocking capacity (FIG. 2B) [6]
14 h						Cc1nnc(C)nn1 [Compound 2.1, 3,6-dimethyl-1,2,4,5-tetrazine]	64.6 ± 1.0%	68.7 ± 1.1%	69.7 ± 1.0%	95 ± 0.4%	perform much worse	14 M⁻¹ s⁻¹	76.1%	78.5%	78.8%	80.6%	81.5%	
10 h						Cc1nnc(-c2ncccn2)nn1 [Compound 4.1, 3-methyl-6-(pyrimidin-2-yl)-1,2,4,5-tetrazine, reference compound]				69 ± 0.0%		250 M⁻¹ s⁻¹						perform much worse
	85.6 ± 0.5%	87.7%	91.1%	81.2%	87.5%	CN(CCc1nnc(-c2ncccn2)nn1)C(=O)CCCC(=O)NC(CO)(CO)CO [Compound 4.15]				55 ± 0.4%								
